Measurements published in patent US7138361B2, “Herbicidal heterocycles” (E. I. du Pont de Nemours and Company, priority 2000, dated 2006).

Tests used:
Type in all cases: in vivo
[1] = tested on: barnyardgrass (Echinochloa crus-galli); test: Test B postemergence; details: 13 to 15 days
Procedure, shortened: (§1)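 Seeds were planted and sprayed preemergence with test chemical in a non-phytotoxic solvent mixture containing surfactant; postemergence plants (2 to 18 cm, 1- to 4-leaf stage) received the same formulation. Greenhouse hold 13 to 15 days, then visual rating versus untreated controls on a 0–100 scale (0 no effect, 100 complete control).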

[2] = tested on: corn (Zea mays); test: Test B postemergence; details: 13 to 15 days
Procedure, shortened: as §1

[3] = tested on: wheat (Triticum aestivum); test: Test B postemergence; details: 13 to 15 days
Procedure, shortened: as §1

[4] = tested on: wild oat (Avena fatua); test: Test B postemergence; details: 13 to 15 days
Procedure, shortened: as §1

[5] = tested on: Nightshade; test: Test C preemergence
[6] = tested on: corn (Zea mays); test: Test C preemergence; details: for Plant response rating (0 to 100), Corn: visual evaluation after 12 to 14 days
Procedure, shortened: (§2)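 Test chemicals, formulated in a non-phytotoxic solvent mixture with surfactant, were applied preemergence to planted seeds or postemergence to plants 2 to 18 cm tall (1- to 4-leaf stage). After 12 to 14 days in a greenhouse, injury was visually rated against untreated controls on a 0–100 scale.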

[7] = tested on: johnsongrass (Sorghum halepense); test: Test C preemergence; details: for Plant response rating (0 to 100), Johnsongrass: visual evaluation after 12 to 14 days
Procedure, shortened: as §2

[8] = tested on: lambsquarters (Chenopodium album); test: Test C preemergence
Procedure, shortened: as §2

[9] = tested on: pigweed (Amaranthus retroflexus); test: Test C preemergence; details: for Plant response rating (0 to 100), Pigweed: visual evaluation after 12 to 14 days
Procedure, shortened: as §2

[10] = tested on: soybean (Glycine max); test: Test C preemergence; details: for Plant response rating (0 to 100), Soybean: visual evaluation after 12 to 14 days
Procedure, shortened: as §2

[11] = tested on: woolly cupgrass (Eriochloa villosa); test: Test C preemergence; details: for Plant response rating (0 to 100), Cupgrass, Woolly: visual evaluation after 12 to 14 days
Procedure, shortened: as §2

[12] = tested on: yellow nutsedge (Cyperus esculentus); test: Test C preemergence; details: for Plant response rating (0 to 100), Nutsedge: visual evaluation after 12 to 14 days
Procedure, shortened: as §2

[13] = tested on: barnyardgrass (Echinochloa crus-galli); test: Test C flooded paddy test; details: for Barnyardgrass plant response rating: Flooded Paddy, scale 0 to 100, 0 no effect, 100 complete control; for Plant response rating, Barnyardgrass: flooded paddy test, scale 0 to 100 (0 no effect, 100 complete control)
Procedure, shortened: (§3)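 Each species was cultivated to 2 leaves in flooded paddy pots, then treated. After a greenhouse period of 12–14 days, the plants were scored visually relative to controls from 0 (no effect) to 100 (complete control).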

[14] = tested on: duck salad (Heteranthera limosa); test: Test C flooded paddy test; details: for Ducksalad plant response rating: Flooded Paddy, scale 0 to 100, 0 no effect, 100 complete control; for Plant response rating, Ducksalad: flooded paddy test, scale 0 to 100 (0 no effect, 100 complete control)
Procedure, shortened: as §3

[15] = tested on: rice (Oryza saliva); test: Test C flooded paddy test; details: for Rice plant response rating: Flooded Paddy, scale 0 to 100, 0 no effect, 100 complete control; for Plant response rating, Rice: flooded paddy test, scale 0 to 100 (0 no effect, 100 complete control)
Procedure, shortened: as §3

[16] = tested on: smallflower flatsedge (Cyperus difformis); test: Test C flooded paddy test; details: for Flatsedge plant response rating: Flooded Paddy, scale 0 to 100, 0 no effect, 100 complete control; for Plant response rating, Flatsedge: flooded paddy test, scale 0 to 100 (0 no effect, 100 complete control)
Procedure, shortened: as §3

[17] = tested on: Nightshade; test: Test C preemergence; details: visual evaluation after 12 to 14 days
[18] = tested on: Sunflower; test: Test C preemergence; details: scale 0 to 100, 0 no effect, 100 complete control
[19] = tested on: kochia (Kochia scoparia); test: Test C preemergence; details: for Plant response rating, Kochia: scale 0 to 100, 0 no effect, 100 complete control; for Plant response rating (0 to 100), Kochia: visual evaluation after 12 to 14 days
Procedure, shortened: as §2

[20] = Rate 125 g/ha, scale 0 (no effect) to 100 (complete control)
[21] = Rate 500 g/ha, scale 0 to 100, 0 is no effect, 100 is complete control
[22] = Rate 62 g/ha, scale 0 to 100, 0 no effect, 100 complete control
[23] = Rate 125 g/ha, scale 0 to 100, 0 no effect, 100 complete control
[24] = Preemergence, Rate 500 g/ha, scale 0 to 100
[25] = preemergence, Rate 125 g/ha, scale 0 to 100, 0 no effect, 100 complete control
[26] = preemergence, Rate 250 g/ha, scale 0 to 100, 0 no effect, 100 complete control

CC(C)c1ccn(C2SCN(c3cccc(OC(F)(F)F)c3)C2=O)n1 (centres unmarked) [Compound 31]
90: Plant response rating, Nightshade [5, 23] | Plant response rating (0 to 100), Johnsongrass ([7]; preemergence, Rate 250 g/ha) | Plant response rating, Pigweed [9, 24] | Plant response rating (0 to 100), Cupgrass, Woolly ([11]; preemergence, Rate 250 g/ha) | Plant response rating, Nutsedge [12, 24] | Barnyardgrass plant response rating ([13]; Rate 250 g/ha) | Plant response rating, Ducksalad ([14]; Rate 125 g/ha) | Rice plant response rating ([15]; Rate 250 g/ha) | Rice plant response rating ([15]; Rate 500 g/ha)
30: Plant response rating, Johnsongrass [7, 22] | Plant response rating, Pigweed [9, 22] | Plant response rating, Rice ([15]; Rate 62 g/ha) | Plant response rating, Sunflower ([18]; Rate 125 g/ha)
100: Plant response rating, Barnyardgrass [1, 20] | Plant response rating, Barnyardgrass [1, 21] | Plant response rating, Nightshade ([5]; Rate 500 g/ha, scale 0 to 100) | Plant response rating, Johnsongrass [7, 24] | Plant response rating, Lambsquarters [8, 24] | Plant response rating, Lambsquarters [8, 22] | Plant response rating (0 to 100), Lambsquarters ([8]; preemergence, Rate 250 g/ha, visual evaluation after 12 to 14 days) | Plant response rating, Lambsquarters [8, 25] | Plant response rating, Pigweed [9, 25] | Plant response rating, Cupgrass, Woolly [11, 24] | Barnyardgrass plant response rating ([13]; Rate 500 g/ha) | Ducksalad plant response rating ([14]; Rate 250 g/ha) | Ducksalad plant response rating ([14]; Rate 500 g/ha) | Flatsedge plant response rating ([16]; Rate 250 g/ha) | Flatsedge plant response rating ([16]; Rate 500 g/ha) | Plant response rating, Flatsedge ([16]; Rate 62 g/ha) | Plant response rating, Flatsedge ([16]; Rate 125 g/ha) | Plant response rating (0 to 100), Nightshade ([17]; Rate 250 g/ha)
0: Plant response rating, Corn [2, 20] | Plant response rating, Corn [2, 21] | Plant response rating, Wheat [3, 20] | Plant response rating, Wheat [3, 21] | Plant response rating, Wild Oat [4, 20] | Plant response rating, Wild Oat [4, 21] | Plant response rating, Soybean [10, 24] | Plant response rating, Soybean [10, 22] | Plant response rating (0 to 100), Soybean ([10]; preemergence, Rate 250 g/ha) | Plant response rating, Soybean [10, 25]
60: Plant response rating, Corn [6, 24] | Plant response rating, Johnsongrass [7, 25] | Plant response rating, Cupgrass, Woolly [11, 25] | Plant response rating, Rice ([15]; Rate 125 g/ha)
50: Plant response rating, Cupgrass, Woolly [11, 22] | Plant response rating, Nutsedge [12, 25]
70: Plant response rating (0 to 100), Nutsedge ([12]; preemergence, Rate 250 g/ha) | Plant response rating, Ducksalad ([14]; Rate 62 g/ha)
80: Plant response rating, Nightshade [5, 22] | Plant response rating (0 to 100), Pigweed ([9]; preemergence, Rate 250 g/ha) | Plant response rating, Barnyardgrass ([13]; Rate 62 g/ha) | Plant response rating, Barnyardgrass ([13]; Rate 125 g/ha)
40: Plant response rating, Corn [6, 22] | Plant response rating (0 to 100), Corn ([6]; preemergence, Rate 250 g/ha) | Plant response rating, Corn [6, 25] | Plant response rating, Nutsedge [12, 22]

CC1(c2ccn(C3SCN(c4cccc(OC(F)(F)F)c4)C3=O)n2)CC1 (centres unmarked) [Compound 63]
30: Plant response rating, Nightshade [5, 22]
80: Ducksalad plant response rating ([14]; Rate 250 g/ha)
70: Plant response rating, Kochia ([19]; Rate 62 g/ha) | Barnyardgrass plant response rating ([13]; Rate 250 g/ha)
60: Plant response rating, Barnyardgrass [1, 21] | Plant response rating, Nightshade [5, 23] | Plant response rating, Nightshade ([5]; Rate 250 g/ha, scale 0 to 100, 0 no effect, 100 complete control) | Plant response rating, Johnsongrass [7, 25] | Plant response rating (0 to 100), Cupgrass, Woolly ([11]; preemergence, Rate 250 g/ha) | Plant response rating, Cupgrass, Woolly [11, 25]
0: Plant response rating, Barnyardgrass [1, 20] | Plant response rating, Corn [2, 20] | Plant response rating, Corn [2, 21] | Plant response rating, Wheat [3, 20] | Plant response rating, Wheat [3, 21] | Plant response rating, Wild Oat [4, 20] | Plant response rating, Wild Oat [4, 21] | Plant response rating, Corn [6, 22] | Plant response rating, Corn [6, 25] | Plant response rating, Johnsongrass [7, 22] | Plant response rating, Soybean [10, 25] | Plant response rating, Soybean [10, 26] | Plant response rating, Nutsedge [12, 22] | Plant response rating, Nutsedge [12, 25] | Plant response rating, Rice ([15]; Rate 62 g/ha) | Plant response rating, Sunflower ([18]; Rate 125 g/ha)
100: Plant response rating (0 to 100), Johnsongrass ([7]; preemergence, Rate 250 g/ha) | Plant response rating (0 to 100), Johnsongrass ([7]; preemergence, Rate 500 g/ha) | Plant response rating (0 to 100), Kochia ([19]; preemergence, Rate 250 g/ha) | Plant response rating (0 to 100), Kochia ([19]; preemergence, Rate 500 g/ha) | Plant response rating, Kochia ([19]; preemergence, Rate 125 g/ha) | Plant response rating (0 to 100), Pigweed ([9]; preemergence, Rate 500 g/ha) | Plant response rating, Pigweed [9, 25] | Plant response rating, Pigweed [9, 26] | Plant response rating (0 to 100), Cupgrass, Woolly ([11]; preemergence, Rate 500 g/ha) | Plant response rating (0 to 100), Nutsedge ([12]; preemergence, Rate 500 g/ha) | Barnyardgrass plant response rating ([13]; Rate 500 g/ha) | Ducksalad plant response rating ([14]; Rate 500 g/ha) | Flatsedge plant response rating ([16]; Rate 250 g/ha) | Flatsedge plant response rating ([16]; Rate 500 g/ha) | Plant response rating, Flatsedge ([16]; Rate 125 g/ha) | Plant response rating (0 to 100), Nightshade ([17]; Rate 500 g/ha)
90: Plant response rating, Flatsedge ([16]; Rate 62 g/ha)
20: Plant response rating (0 to 100), Corn ([6]; preemergence, Rate 250 g/ha) | Plant response rating, Cupgrass, Woolly [11, 22] | Plant response rating, Nutsedge [12, 26] | Plant response rating, Barnyardgrass ([13]; Rate 62 g/ha) | Plant response rating, Ducksalad ([14]; Rate 62 g/ha) | Plant response rating, Ducksalad ([14]; Rate 125 g/ha) | Plant response rating, Rice ([15]; Rate 125 g/ha)
40: Plant response rating (0 to 100), Corn ([6]; preemergence, Rate 500 g/ha) | Plant response rating (0 to 100), Soybean ([10]; preemergence, Rate 500 g/ha) | Plant response rating, Barnyardgrass ([13]; Rate 125 g/ha) | Rice plant response rating ([15]; Rate 250 g/ha) | Rice plant response rating ([15]; Rate 500 g/ha) | Plant response rating, Sunflower ([18]; Rate 250 g/ha)
